Experiments:
CYP2C19 = CYP2C19 (Homo sapiens, UniProt P33261); assay: CYP inhibition assay CYP2C19; type: in vitro ADME; settings: fluorescence detection method; read-out: CYPs enzyme inhibition, IC50, CYP2C19
[1] = In vitro microsomal stability, dog; type: in vitro ADME; settings: dog liver microsomes, 5 μM, 60 min
[2] = Pharmacokinetic profile in rat; type: in vivo
hACAT1 = biological target: T1, hACAT1 (Homo sapiens, UniProt P35610); assay: Enzymatic assay hACAT1; type: biochemical
T1 sequence (P35610 1-550): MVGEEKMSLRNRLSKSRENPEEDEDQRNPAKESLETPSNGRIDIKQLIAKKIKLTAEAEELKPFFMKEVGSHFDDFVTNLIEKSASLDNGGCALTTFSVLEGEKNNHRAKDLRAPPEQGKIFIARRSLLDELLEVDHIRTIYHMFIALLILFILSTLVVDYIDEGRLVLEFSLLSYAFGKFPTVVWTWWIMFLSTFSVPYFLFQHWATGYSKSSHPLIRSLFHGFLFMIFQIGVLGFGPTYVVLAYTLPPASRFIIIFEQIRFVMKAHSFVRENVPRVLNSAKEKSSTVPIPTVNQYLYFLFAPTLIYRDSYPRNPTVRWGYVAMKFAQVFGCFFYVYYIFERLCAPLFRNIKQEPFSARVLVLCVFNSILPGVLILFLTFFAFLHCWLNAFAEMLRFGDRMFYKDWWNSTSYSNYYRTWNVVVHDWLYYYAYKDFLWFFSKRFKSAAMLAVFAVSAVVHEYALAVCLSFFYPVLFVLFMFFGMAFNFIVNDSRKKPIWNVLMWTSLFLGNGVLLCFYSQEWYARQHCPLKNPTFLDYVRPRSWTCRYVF
Description: ACATs have sequence homology to DGAT-1 and play essential roles in cholesterol homeostasis. 17b was not explored in the enzymatic assays due to its poor pharmacokinetic profile.

[3] = biological target: T2, human recombinant DGAT1 enzyme expressed in insect cells (SF9 cells) (Homo sapiens, UniProt O75907); assay: DGAT-1 inhibition assay (IC50), SF9 microsomes; type: biochemical; settings: SF9 insect cells expressing human DGAT-1
T2 construct: made in house; host or cells: SF9 insect cells (microsomal membrane fraction)
T2 sequence (O75907 1-488): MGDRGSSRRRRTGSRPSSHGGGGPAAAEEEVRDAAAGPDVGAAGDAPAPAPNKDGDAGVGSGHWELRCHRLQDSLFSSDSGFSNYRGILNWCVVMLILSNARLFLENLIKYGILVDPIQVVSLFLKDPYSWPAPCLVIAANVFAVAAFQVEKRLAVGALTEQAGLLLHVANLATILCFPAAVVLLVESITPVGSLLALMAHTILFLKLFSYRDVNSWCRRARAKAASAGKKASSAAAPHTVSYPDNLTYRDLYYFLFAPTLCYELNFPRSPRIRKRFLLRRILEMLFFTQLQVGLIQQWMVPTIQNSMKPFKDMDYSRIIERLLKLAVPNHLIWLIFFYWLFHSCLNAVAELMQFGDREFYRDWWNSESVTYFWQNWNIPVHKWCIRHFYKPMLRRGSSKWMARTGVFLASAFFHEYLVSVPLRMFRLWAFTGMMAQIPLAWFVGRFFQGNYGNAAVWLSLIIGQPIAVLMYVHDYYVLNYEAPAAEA
Description: The activity of DGAT-1 inhibitors in vitro was evaluated by using a human recombinant DGAT1 enzyme expressed in insect cells (SF9 cells). SF9 cells were homogenised by washing them with DPBS (Dulbecco’s phosphate-buffered saline) and then suspending cell pellets with a tris buffer (250 mM sucrose; 10 mM Tris-HCl [pH 7.4]; proteinase inhibitor). The resulting mixture was centrifugally separated at 10,000 × g for 30 min to remove the cell debris remaining in the lower layer thereof, and was centrifugally separated at 100,000 × g for 60 min to obtain a microsomal membrane. Further, membrane fractions were resuspended by the tris buffer, and then stored at -80 °C.
The activity of DGAT1 was measured according to the reported method. Specifically, 0.0001 – 10 μΜ (final concentration, FC) of the test compounds were cultured at room temperature (25 °C) for 15 min with a […] of SF9 microsomal protein solution and 100 mM of MgCl2 solution, and were then further cultured at room temperature (25 °C) for 30 min after the addition of 100 μΜ (FC in 12.5% EtOH) of 1,2-dioleyl-sn-glycerol and 30 μΜ (final conc.) of [14]C-oleyl coenzyme A. The reaction was completed by the addition of 300 μL of a mixed solution of 2-propanol/heptane (7:1), and radioactive triglyceride was separated from an organic solvent layer by using 200 μL of heptane and 200 μL of a 0.1 M carbonate buffer (pH 9.5). The amount of triglyceride was measured by liquid scintillography (Perkin Elmer, USA) after mixing with an organic solvent and an equivalent amount of scintillation solvent (MicroScint-O, Perkin Elmer, USA). The effects of inhibiting DGAT1 were calculated as percent in comparison with a control material.
The activities of synthesised compounds were evaluated using SF9 insect cells expressing human DGAT-1[22]. A potent DGAT-1 inhibitor, LCQ-908 (2 or pradigastat) was used as a positive control. […] The calculated lowest energy conformation model of 14c provided that the distance between the terminal carboxylic acid and NH of urea was over 16 Å, which may result in reduced activity. […]

[4] = Pharmacokinetic profile in dog; type: in vivo
CYP3A4 = CYP3A4 (Homo sapiens, UniProt P08684); assay: CYP inhibition assay CYP3A4; type: in vitro ADME; settings: fluorescence detection method; read-out: CYPs enzyme inhibition, IC50, CYP3A4
CYP2D6 = CYP2D6 (Homo sapiens, UniProt P10635); assay: CYP inhibition assay CYP2D6; type: in vitro ADME; settings: fluorescence detection method; read-out: CYPs enzyme inhibition, IC50, CYP2D6
Sequence of CYP2D6 (P10635 whole entry): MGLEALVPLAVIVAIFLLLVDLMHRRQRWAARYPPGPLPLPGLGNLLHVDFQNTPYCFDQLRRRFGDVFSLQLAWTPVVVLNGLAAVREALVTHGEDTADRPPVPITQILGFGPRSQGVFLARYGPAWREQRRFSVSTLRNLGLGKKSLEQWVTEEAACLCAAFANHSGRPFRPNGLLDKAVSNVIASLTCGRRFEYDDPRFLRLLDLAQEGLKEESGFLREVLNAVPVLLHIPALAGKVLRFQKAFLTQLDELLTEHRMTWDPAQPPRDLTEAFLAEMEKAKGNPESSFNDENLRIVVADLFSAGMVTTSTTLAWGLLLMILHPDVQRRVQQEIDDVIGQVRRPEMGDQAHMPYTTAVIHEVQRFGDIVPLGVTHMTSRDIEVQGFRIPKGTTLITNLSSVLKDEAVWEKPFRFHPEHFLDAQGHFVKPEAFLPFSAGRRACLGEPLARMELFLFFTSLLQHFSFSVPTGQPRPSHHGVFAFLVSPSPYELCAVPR

Sequence of CYP2C19 (P33261 whole entry): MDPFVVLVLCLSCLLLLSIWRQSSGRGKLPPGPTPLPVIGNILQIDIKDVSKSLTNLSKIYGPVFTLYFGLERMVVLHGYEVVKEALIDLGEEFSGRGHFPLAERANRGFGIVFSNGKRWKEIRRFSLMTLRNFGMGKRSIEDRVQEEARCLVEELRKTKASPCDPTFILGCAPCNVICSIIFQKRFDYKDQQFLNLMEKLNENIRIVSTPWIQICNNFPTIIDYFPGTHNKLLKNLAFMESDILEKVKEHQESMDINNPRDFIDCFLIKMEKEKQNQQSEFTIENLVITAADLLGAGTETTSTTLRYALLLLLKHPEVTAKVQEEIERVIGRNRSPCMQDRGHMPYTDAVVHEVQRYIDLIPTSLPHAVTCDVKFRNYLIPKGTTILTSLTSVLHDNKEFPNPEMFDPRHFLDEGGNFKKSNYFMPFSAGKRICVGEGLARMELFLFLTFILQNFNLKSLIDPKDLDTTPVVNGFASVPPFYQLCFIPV
Sequence of CYP3A4 (P08684 whole entry): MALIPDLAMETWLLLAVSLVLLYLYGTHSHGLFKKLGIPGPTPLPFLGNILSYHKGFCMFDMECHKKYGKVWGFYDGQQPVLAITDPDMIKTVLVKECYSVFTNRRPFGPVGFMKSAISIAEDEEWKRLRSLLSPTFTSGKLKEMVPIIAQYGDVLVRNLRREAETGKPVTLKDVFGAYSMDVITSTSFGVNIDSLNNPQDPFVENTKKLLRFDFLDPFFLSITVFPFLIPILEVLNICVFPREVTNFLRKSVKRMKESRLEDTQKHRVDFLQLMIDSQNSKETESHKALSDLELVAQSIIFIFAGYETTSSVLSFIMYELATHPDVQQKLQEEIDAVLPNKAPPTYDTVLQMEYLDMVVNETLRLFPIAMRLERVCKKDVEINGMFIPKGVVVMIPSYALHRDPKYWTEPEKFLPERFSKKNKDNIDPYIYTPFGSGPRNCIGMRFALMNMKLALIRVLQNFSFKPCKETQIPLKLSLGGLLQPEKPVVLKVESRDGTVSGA

**Q.** For O=C([O-])C[C@H]1CC[C@@H](c2csc3c(-c4ccc(NC(=O)Nc5cccc(Cl)c5)cc4)ncnc32)CC1.[Na+] [Compound 17a, Sodium cis-2–(4–(4-(4-(3–(3-chlorophenyl)ureido)phenyl)thieno[3,2-d]pyrimidin-7-yl)cyclohexyl)acetate], which IC50 (CYP2C19) is on record?
**A.** > 20 µM

**Q.** What about the “Microsomal stability, remaining percent” value [1] of the same compound?
**A.** 82%

**Q.** What about the Cl ([2]; 3 mg/kg iv, 10 mg/kg po) of the same compound?
**A.** 8.3 ± 3.3 mL/min/kg

**Q.** And the half-life ([2]; in vivo, 10 mg/kg po)?
**A.** 3 ± 0.4 h

**Q.** What about the bioavailability ([2]; in vivo, 10 mg/kg po vs 3 mg/kg iv) of the same compound?
**A.** 30%

**Q.** What about the AUC ([2]; in vivo, 10 mg/kg po, read-out: AUC 0 ∼ 24) of the same compound?
**A.** 18600 ng·h/mL

**Q.** What about the IC50 (hACAT1) of the same compound?
**A.** > 10 µM

**Q.** What about the IC50 [3] of the same compound?
**A.** 0.074 µM

**Q.** What about the Cl ([4]; 1 mg/kg iv, 3 mg/kg po) of the same compound?
**A.** 6.7 ± 1.7 mL/min/kg

**Q.** And the half-life ([4]; in vivo, 3 mg/kg po)?
**A.** 3.6 ± 0.7 h

**Q.** And the bioavailability ([4]; in vivo, 3 mg/kg po vs 1 mg/kg iv)?
**A.** 53%

**Q.** And the AUC ([4]; in vivo, 3 mg/kg po, read-out: AUC 0 ∼ 24)?
**A.** 8240 ± 2300 ng·h/mL

**Q.** And the IC50 (CYP3A4)?
**A.** 16.2 µM

**Q.** And the IC50 (CYP2D6)?
**A.** 8.7 µM
